Reference: ChEMBL document CHEMBL5230137, “4-(3H)-quinazolinones N-3 substituted with a five membered heterocycle: A promising scaffold towards bioactive molecules” (Eur J Med Chem, 2021)
Values after ≈ are worked out from the molar mass of the structure shown.

Assays:
[1] = system: Staphylococcus aureus; assay: Bactericidal activity against Staphylococcus aureus; type: functional
[2] = molecular target: COX-1/COX-2 (Homo sapiens) (UniProt P35354+P23219); assay: Selectivity index, ratio of IC50 for human COX-1 to IC50 for human COX-2; type: protein assay
[3] = molecular target: T1, Phosphatidylinositol 4,5-bisphosphate 3-kinase catalytic subunit delta isoform (Homo sapiens, UniProt O00329); assay: Inhibition of PI3Kdelta (unknown origin) incubated for 90 mins by [gamma-33P]-ATP based scintillation counting method
T1 sequence (O00329 whole entry): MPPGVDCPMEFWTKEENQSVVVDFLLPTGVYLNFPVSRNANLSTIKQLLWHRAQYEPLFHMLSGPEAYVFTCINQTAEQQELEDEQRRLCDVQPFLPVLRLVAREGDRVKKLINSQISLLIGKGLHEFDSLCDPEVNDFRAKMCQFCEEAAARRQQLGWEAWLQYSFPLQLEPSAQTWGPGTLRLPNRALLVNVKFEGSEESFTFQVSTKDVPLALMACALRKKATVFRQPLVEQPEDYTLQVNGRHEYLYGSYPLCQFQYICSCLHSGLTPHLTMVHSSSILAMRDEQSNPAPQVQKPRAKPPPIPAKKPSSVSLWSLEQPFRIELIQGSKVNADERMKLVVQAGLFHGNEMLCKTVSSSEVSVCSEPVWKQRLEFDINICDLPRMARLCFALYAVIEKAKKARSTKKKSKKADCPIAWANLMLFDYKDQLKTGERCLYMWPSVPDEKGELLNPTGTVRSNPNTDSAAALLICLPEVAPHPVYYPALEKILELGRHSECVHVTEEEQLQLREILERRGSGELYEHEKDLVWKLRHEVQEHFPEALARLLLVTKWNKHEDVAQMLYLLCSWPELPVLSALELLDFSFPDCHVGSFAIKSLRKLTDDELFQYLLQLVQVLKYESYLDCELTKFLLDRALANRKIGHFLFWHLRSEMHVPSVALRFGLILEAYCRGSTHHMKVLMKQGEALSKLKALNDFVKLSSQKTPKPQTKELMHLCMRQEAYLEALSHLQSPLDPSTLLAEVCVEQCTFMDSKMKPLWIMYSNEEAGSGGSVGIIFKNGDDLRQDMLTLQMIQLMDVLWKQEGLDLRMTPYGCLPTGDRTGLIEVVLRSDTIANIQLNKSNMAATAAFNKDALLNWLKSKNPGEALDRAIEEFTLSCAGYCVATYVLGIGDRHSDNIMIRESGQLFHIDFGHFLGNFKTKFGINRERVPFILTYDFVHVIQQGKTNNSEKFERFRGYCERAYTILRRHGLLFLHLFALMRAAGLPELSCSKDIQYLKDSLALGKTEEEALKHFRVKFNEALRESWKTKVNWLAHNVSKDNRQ

[4] = molecular target: Phosphatidylinositol 4,5-bisphosphate 3-kinase catalytic subunit gamma isoform (Homo sapiens, UniProt P48736); assay: Inhibition of PI3Kgamma (unknown origin) incubated for 90 mins by [gamma-33P]-ATP based scintillation counting method
[5] = Inhibition of PI3Kdelta in Rat1 cells reduction in phosphorylation of AKT at Ser473 residue incubated for 2 hrs by alpha screen assay; type: cell-based; conditions: Rattus norvegicus, Rat1, 2 h
[6] = molecular target: Phosphatidylinositol 4,5-bisphosphate 3-kinase catalytic subunit alpha isoform (Homo sapiens, UniProt P42336); assay: Inhibition of PI3Kalpha (unknown origin) incubated for 90 mins by [gamma-33P]-ATP based scintillation counting method
[7] = system: K562; assay: Anticancer activity against human K562 cells assessed as reduction in cell viability; type: functional, cell-based
[8] = Acute toxicity in po dosed Swiss albino mouse measured after 24 hrs; type: organism-based; conditions: in vivo
[9] = system: Aspergillus clavatus; assay: Fungicidal activity against Aspergillus clavatus; type: functional
[10] = system: Candida albicans; assay: Fungicidal activity against Candida albicans; type: functional
[11] = system: Aspergillus niger; assay: Fungicidal activity against Aspergillus niger; type: functional
[12] = system: Pseudomonas aeruginosa; assay: Bactericidal activity against Pseudomonas aeruginosa; type: functional
[13] = system: Escherichia coli; assay: Bactericidal activity against Escherichia coli; type: functional
[14] = system: Ehrlich; assay: Antitumor activity against mouse EAC cells implanted in mouse assessed as decrease in total ascitic volume; type: functional; set-up: scale not given: the % may be the effect or the level left
[15] = system: Ehrlich; assay: Antitumor activity against mouse EAC cells implanted in mouse assessed as reduction in tumor cell count; type: functional; set-up: scale not given: the % may be the effect or the level left
[16] = system: Bacillus subtilis; assay: Antimicrobial activity against Bacillus subtilis by CLSI method; type: functional
[17] = system: Pseudomonas aeruginosa; assay: Antimicrobial activity against Pseudomonas aeruginosa by CLSI method; type: functional
[18] = system: Staphylococcus aureus; assay: Antimicrobial activity against Staphylococcus aureus by CLSI method; type: functional
[19] = system: Escherichia coli; assay: Antibacterial activity against Escherichia coli by CLSI method; type: functional
[20] = molecular target: Epidermal growth factor receptor (Homo sapiens, UniProt P00533); assay: Inhibition of wild type human EGFR measured by ELISA analysis
[21] = molecular target: T2, Thermolysin (Bacillus thermoproteolyticus, UniProt P00800); assay: Binding affinity to Bacillus thermoproteolyticus Thermolysin assessed as inhibition constant by Cheng-Prusoff equation analysis
T2 sequence (P00800 whole entry): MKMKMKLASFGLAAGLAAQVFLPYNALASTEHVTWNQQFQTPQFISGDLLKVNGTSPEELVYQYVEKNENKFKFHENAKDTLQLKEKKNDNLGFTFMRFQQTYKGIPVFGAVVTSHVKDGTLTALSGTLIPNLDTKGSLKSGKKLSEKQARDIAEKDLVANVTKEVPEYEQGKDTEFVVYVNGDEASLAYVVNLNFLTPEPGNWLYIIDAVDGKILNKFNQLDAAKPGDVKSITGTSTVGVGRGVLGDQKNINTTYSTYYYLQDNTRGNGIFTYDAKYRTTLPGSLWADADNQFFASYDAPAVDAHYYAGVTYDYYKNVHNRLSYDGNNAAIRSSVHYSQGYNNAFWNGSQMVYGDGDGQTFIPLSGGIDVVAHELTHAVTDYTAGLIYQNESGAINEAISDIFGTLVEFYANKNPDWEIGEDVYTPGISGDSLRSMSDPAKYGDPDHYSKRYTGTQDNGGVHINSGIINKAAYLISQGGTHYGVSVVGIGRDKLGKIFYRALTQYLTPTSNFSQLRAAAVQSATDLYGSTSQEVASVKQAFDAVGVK

[22] = molecular target: T2, Thermolysin; assay: Inhibition of Bacillus thermoproteolyticus Thermolysin

Sequence of Phosphatidylinositol 4,5-bisphosphate 3-kinase catalytic subunit alpha isoform (P42336 whole entry, canonical isoform): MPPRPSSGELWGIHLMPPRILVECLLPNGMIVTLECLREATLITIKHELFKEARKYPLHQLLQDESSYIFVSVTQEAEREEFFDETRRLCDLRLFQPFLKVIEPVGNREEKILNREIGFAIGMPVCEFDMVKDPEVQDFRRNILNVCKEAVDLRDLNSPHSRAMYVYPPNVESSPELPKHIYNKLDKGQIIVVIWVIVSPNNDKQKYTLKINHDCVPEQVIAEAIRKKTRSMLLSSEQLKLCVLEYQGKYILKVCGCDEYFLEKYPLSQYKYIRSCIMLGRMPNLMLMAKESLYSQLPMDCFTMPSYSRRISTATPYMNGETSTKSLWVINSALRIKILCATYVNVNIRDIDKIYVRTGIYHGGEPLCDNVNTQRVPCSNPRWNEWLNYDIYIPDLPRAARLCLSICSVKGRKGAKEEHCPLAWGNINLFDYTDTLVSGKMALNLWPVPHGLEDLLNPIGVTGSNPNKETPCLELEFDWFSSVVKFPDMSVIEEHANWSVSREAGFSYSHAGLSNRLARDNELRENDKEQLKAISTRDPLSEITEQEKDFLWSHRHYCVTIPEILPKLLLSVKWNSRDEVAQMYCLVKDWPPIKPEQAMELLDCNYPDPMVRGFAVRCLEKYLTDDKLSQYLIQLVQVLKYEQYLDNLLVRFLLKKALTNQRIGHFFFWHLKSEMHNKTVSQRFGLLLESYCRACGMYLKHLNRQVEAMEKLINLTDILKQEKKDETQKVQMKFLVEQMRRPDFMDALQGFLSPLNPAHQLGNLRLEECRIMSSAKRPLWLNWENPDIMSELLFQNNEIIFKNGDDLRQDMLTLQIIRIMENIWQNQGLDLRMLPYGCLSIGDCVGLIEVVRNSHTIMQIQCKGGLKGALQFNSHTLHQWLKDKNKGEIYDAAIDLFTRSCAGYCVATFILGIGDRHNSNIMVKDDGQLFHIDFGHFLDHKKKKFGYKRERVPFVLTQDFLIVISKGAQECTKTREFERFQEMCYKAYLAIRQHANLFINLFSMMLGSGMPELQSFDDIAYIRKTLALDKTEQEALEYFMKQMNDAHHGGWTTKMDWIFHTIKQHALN
Sequence of Phosphatidylinositol 4,5-bisphosphate 3-kinase catalytic subunit gamma isoform (P48736 whole entry, canonical isoform): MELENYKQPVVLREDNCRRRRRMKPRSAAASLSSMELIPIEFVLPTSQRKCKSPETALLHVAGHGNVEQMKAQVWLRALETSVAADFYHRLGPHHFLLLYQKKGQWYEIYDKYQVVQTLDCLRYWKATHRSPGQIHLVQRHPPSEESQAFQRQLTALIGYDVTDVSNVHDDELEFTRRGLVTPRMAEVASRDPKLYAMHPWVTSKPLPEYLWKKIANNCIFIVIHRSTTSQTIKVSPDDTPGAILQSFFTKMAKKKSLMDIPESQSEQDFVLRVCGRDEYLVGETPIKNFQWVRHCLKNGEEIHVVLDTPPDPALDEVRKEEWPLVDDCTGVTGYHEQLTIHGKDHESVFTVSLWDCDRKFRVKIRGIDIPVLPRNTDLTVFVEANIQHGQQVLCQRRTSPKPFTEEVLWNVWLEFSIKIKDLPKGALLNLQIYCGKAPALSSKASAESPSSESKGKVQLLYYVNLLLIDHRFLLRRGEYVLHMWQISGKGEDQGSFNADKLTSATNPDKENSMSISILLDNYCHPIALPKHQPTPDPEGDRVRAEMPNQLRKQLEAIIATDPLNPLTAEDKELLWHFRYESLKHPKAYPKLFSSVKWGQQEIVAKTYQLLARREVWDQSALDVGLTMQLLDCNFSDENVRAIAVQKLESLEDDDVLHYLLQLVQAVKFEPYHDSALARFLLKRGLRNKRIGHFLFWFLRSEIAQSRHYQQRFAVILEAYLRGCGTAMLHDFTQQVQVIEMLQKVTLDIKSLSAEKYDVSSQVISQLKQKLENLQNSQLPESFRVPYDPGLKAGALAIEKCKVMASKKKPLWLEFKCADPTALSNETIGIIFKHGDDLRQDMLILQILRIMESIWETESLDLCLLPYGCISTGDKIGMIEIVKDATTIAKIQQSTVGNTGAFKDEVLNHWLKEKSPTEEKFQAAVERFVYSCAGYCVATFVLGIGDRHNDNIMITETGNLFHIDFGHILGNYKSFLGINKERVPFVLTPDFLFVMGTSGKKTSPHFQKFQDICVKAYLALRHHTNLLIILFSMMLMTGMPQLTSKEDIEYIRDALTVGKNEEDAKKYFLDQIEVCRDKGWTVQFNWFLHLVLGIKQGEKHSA
Sequence of Epidermal growth factor receptor (P00533 whole entry): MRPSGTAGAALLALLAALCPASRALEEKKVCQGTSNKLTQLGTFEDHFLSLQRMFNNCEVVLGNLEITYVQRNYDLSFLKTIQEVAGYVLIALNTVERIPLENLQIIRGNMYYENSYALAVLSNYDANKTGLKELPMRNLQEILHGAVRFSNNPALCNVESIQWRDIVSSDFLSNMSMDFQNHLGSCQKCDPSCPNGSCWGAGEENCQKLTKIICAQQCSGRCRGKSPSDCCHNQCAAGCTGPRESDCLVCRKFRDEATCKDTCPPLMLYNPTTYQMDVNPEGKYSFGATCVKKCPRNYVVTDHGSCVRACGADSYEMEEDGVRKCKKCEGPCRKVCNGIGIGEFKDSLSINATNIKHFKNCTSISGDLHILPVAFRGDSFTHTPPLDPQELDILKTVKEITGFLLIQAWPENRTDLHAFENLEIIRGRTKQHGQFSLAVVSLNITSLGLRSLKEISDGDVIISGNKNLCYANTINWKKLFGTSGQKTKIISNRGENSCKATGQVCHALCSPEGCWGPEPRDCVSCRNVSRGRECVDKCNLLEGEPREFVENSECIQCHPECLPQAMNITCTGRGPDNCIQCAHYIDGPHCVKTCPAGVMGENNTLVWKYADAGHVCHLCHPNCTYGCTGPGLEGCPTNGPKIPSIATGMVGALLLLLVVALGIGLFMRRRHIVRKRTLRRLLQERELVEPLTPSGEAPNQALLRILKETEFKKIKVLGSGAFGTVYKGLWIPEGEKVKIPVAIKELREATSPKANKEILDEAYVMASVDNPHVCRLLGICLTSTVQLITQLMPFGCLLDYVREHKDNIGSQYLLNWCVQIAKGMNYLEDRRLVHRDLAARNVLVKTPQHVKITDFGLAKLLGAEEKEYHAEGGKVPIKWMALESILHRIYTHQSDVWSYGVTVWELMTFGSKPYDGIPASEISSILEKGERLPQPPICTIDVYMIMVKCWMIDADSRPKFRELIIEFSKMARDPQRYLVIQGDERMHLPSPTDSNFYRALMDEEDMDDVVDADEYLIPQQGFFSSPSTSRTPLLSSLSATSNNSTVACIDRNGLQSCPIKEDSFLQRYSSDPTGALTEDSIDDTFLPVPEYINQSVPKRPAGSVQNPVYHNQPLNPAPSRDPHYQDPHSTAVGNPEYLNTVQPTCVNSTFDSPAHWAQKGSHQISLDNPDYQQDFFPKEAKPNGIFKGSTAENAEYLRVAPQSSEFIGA

CC1(C)S[C@@H]2[C@H](NC(=O)[C@H](N)c3ccccc3)C(=O)N2[C@H]1C(=O)O [AMPICILLIN]
MBC [1]: 250 µg/mL (≈ 715 µM)

O=c1c2cc(I)ccc2nc(Cc2ccccc2Nc2c(Cl)cccc2Cl)n1-c1ccc(-c2nnc(-c3ccc(Cl)cc3)o2)cc1
MBC [1]: 50 µg/mL (≈ 64.4 µM)

Cc1ccc2nc(-c3ccccc3)n(-c3n[nH]c4ccccc34)c(=O)c2c1
Ratio IC50 [2]: 3.59

N#Cc1c(N)ncnc1N1CSC[C@H]1c1nc2cccc(Cl)c2c(=O)n1-c1cccs1
IC50 [3]: 140 nM
IC50 [4]: 1100 nM
IC50 [5]: 509 nM
IC50 [6]: > 10000 nM

O=c1c2ccccc2nc(Cc2ccccc2Nc2c(Cl)cccc2Cl)n1Cc1nnc(-c2ccc(Cl)cc2)o1
IC50 [7]: 1000 nM

O=c1c2cc(Br)ccc2nc(-c2ccccc2)n1-c1n[nH]c2ccccc12
Ratio IC50 [2]: 1.05

Cn1nccc1-n1c([C@@H]2CSCN2c2ncnc(N)c2C#N)nc2cccc(Cl)c2c1=O
IC50 [5]: > 10000 nM

CC1=Cc2ccc(Br)cc2C(=O)C1c1nnc(SCC(=O)NC2C(=O)CSC2c2c(Br)cccc2Br)[nH]1 (centres undefined)
LD [8]: 1400 mg/kg

O=c1c2cc(I)ccc2nc(Cc2ccccc2Nc2c(Cl)cccc2Cl)n1Cc1nnc(-c2ccccc2Cl)o1
MFC [9]: 200 µg/mL (≈ 280 µM)
MFC [10]: 100 µg/mL (≈ 140 µM)
MFC [11]: 200 µg/mL (≈ 280 µM)

CN1CCN(C)/C(=N/c2ccc([N+](=O)[O-])cc2C(=O)Nc2ccccc2)C1
IC50 [3]: 82 nM
IC50 [4]: > 10000 nM
IC50 [5]: 2260 nM
IC50 [6]: > 10000 nM

O=c1c2cc(I)ccc2nc(Cc2ccccc2Nc2c(Cl)cccc2Cl)n1-c1ccc(-c2nnc(-c3ccccc3Cl)o2)cc1
MBC [1]: 50 µg/mL (≈ 64.4 µM)

Cn1nccc1-n1c([C@@H]2CSCN2c2ncnc3[nH]cnc23)nc2cccc(Cl)c2c1=O
IC50 [5]: 222 nM
IC50 [6]: 9100 nM

O=c1c2cc(Cl)ccc2nc(-c2ccccc2)n1-c1n[nH]c2ccccc12
Ratio IC50 [2]: 2.55

O=c1c2cc(Br)ccc2nc(Cc2ccccc2Nc2c(Cl)cccc2Cl)n1Cc1nnc(-c2ccc(Cl)cc2)o1
MBC [1]: 50 µg/mL (≈ 74.9 µM)
IC50 [7]: 1500 nM

CC1=Cc2ccc(Br)cc2C(=O)C1c1nnc(SCC(=O)N/N=C/c2c(Br)cccc2Br)[nH]1 (centres undefined)
LD [8]: 1400 mg/kg

O=c1c2cc(I)ccc2nc(Cc2ccccc2Nc2c(Cl)cccc2Cl)n1Cc1nnc(-c2ccc(Cl)cc2)o1
MBC [12]: 150 µg/mL (≈ 210 µM)
MBC [13]: 50 µg/mL (≈ 70 µM)

O=c1c2ccccc2nc(Cc2ccccc2Nc2c(Cl)cccc2Cl)n1-c1ccc(-c2nnc(-c3ccccc3Cl)o2)cc1
MBC [1]: 50 µg/mL (≈ 76.8 µM)

Cc1nc2ccccc2c(=O)n1-c1nnc(S)s1
Activity [14]: 28%
Activity [15]: 12%

O=c1c2cc(Br)ccc2nc(Cc2ccccc2Nc2c(Cl)cccc2Cl)n1-c1nnc(-c2ccccc2Cl)o1
MBC [1]: 50 µg/mL (≈ 76.5 µM)

O=c1c2ccccc2nc(/C=C/c2ccccc2)n1-c1nnc(-c2ccc(Cl)cc2)o1
MIC [16]: 75 µg/mL (≈ 176 µM)
MIC [17]: 70 µg/mL (≈ 164 µM)
MIC [18]: 79 µg/mL (≈ 185 µM)
MIC [19]: 70 µg/mL (≈ 164 µM)

O=c1c2ccc(Cl)cc2nc(-c2ccccc2)n1-c1nnc(-c2ccccc2C2CC2)o1
IC50 [20]: 102 nM

O=c1c2ccccc2nc(-c2ccccc2)n1-c1nccs1
Ki [21]: 59300 nM
IC50 [22]: 76800 nM

COc1ccc(-c2nnc(-n3c(-c4ccccc4)nc4cc(Cl)ccc4c3=O)o2)cc1
IC50 [20]: 21 nM
